According to patent US20240294465A1, “NOVEL ANTI-FIBROTIC DRUGS” (HELMHOLTZ ZENTRUM MUNCHEN - DEUTSCHES FORSCHUNGSZENTRUM FUR …, priority 2021, published 2024):
Entries after “also recorded” stand apart in the source; their conditions may differ.

Columns and labels:
[1] = test system: cell shape, microtubules and actin of phLFs; assay: Fluorescence microscopy of cell morphology and cytoskeleton (α-Tubulin, phalloidin, calcein); format: cell-based, human
Text: FIG. 14: Dose-response relationships of N23Ps, live imaging of ECM deposition and cell-morphology switch. (A) Structural formula for Tranilast and N23Ps (example 84 and example 85) indicating 2-butoxy-substitution at R1 and IC50 values. […] Cell nuclei in blue (HOECHST). Scale bar=500 μm. […] Cell nuclei were stained by Hoechst (blue). Scale bar=50 μm. (F) Confocal images of subconfluent phLFs+TGFβ1 stained for Hoechst (blue), calcein (green) and phalloidin (red) showing round cell morphologies after treatment with example 84 as well as extensive actin cytoskeletal rearrangements (red). […] Scale bar=500 μm. Data are presented as means t SEM. Differences between groups were evaluated with paired t-tests. * p<0.05. n=3 (three different patient phLFs).
FIG. 16: (A) Fluorescence wide-field microscopy images (10× objective in low magnification and resolution) of phLFs treated with 5 μM DMSO, 50 μM example 84 and 100 μM Tranilast, and stained for Hoechst (blue), α-Tubulin (green) and filamentous actin (red, Phalloidin). […] Scale bar=100 μm. (B) Fluorescence wide-field microscopy images (63× objective in high magnification and resolution) of phLFs treated with either 5 μM DMSO or 50 μM example 84, and stained for Hoechst (blue), a.-Tubulin (green) and filamentous actin (red, Phalloidin). […] Scale bar=[…]. iPSC=induced pluripotent stem cells. […] Scale bar=350 μm. […] Thus, the compounds of the present invention show similar effects like colchicine on microtubules (41). Therefore, the compounds of the present invention are also for use in the treatment of inflammatory diseases such as arthrolithiasis, familiar mediterranean fever and pericarditis amongst others by the inhibition of polymorphonuclear leukocyte and macrophage motility as well as intracellular vesicular transport mechanisms.
For standard immunofluorescence staining, 5000 phLFs were seeded into 96 well imaging plates with a flat bottom (Cat #353376, BD Biosciences). After incubation, cells were fixed with either 4% PFA for 30 min at 37° C. or 100% methanol for 2 min at −20° C. […]

[2] = test system: ECM deposition of collagen I, collagen V and fibulin 1 by phLFs+TGFβ1; assay: 3D ECM deposition assay (collagen I, collagen V, fibulin 1), dose-response and live imaging; format: cell-based, human; details: phLFs+TGFβ1, during 48 hours
Experimental: phLFs were cultured in DMEM F-12 medium with 20% fetal bovine serum (FBS) and antibiotic supplement as mentioned above. Cells were seeded with 6000 cells/well in 384-well CellCarrier plates (Perkin Elmer, Cat #6007550). Following overnight incubation, cells were starved in serum-reduced medium (1% FBS with 0.1 mM 2-phosphoascorbate (Sigma, Cat #49752)) for 24 h. Afterwards, cells were treated with TGFβ1 (1 ng/ml) or vehicle, and additionally small molecules or appropriate vehicle controls were added. […] Fluorescenceconjugation of the collagen type 1 antibody was done by using the AlexaFluor-555 Protein Labeling Kit (Invitrogen, Cat #A20174) according to manufacturer's instructions. […]
Following fixation, the automated imaging was achieved by using aconfocal laser scanning microscope (LSM710, Zeiss) with automated focus detection for three-dimensional image acquisition (1024 px×1024 px×9 px which equals a dimension of 1417 μm×1417 μm×16 μm). For post-acquisition analysis images were imported into IMARIS software (Bitplane) and volume detection or alternatively quantification of the mean fluorescence intensity, as well as Hoechst-stained cell nuclei were automatically counted by using Imaris' spot detection algorithm. […]

With `CCCCOc1ccccc1NC(=O)/C=C/c1ccc(OC)c(OC)c1` [Example 84, (E)-N-(2-butoxyphenyl)-3-(3,4-dimethoxyphenyl)acrylamide] the cell morphology ([1]; b48: example 84 50 μM, Tranilast 100 μM) was “significant changes in cell-shape and eccentricity towards round cells; also recorded: cell-shape switch towards round cell morphologies”, the “actin filaments (Phalloidin)” value ([1]; example 84 50 μM) was “without affecting actin filaments” and the “microtubules (α-Tubulin staining)” value ([1]; example 84 50 μM, Tranilast 100 μM) was “depolymerized, that is non-filamentous, microtubules”. The “dynamic deposition of collagen I and fibulin 1 (MFI, live imaging)” value [2] was “inhibition of ECM deposition”.
